Data: patent US6596500B1, “Binding of retinoids to M6P/IGF-II receptor” (The General Hospital Corporation, priority 1998, dated 2003)
Entries after “also recorded” stand apart in the source; their conditions may differ.

Columns and labels:
Format in all cases: cell-based
[1] = tested on: neonatal rat cardiac myocytes; experiment: Growth, morphology and apoptosis of cardiac myocytes
Protocol: Cultured neonatal rat cardiac myocytes were known to express high levels of the M6P/IGF2R protein. The effect of RA on the growth of normal, neonatal rat cardiac myocytes was examined.
Cell Isolation and Culture For the photoaffinity labeling experiments, cardiac myocytes were isolated from 1-day-old neonatal Sprague-Dawley rats, using the Neonatal Cardiomyocyte Isolation System (Worthington). The isolated cell were cultured on Petri dishes with culture medium (F-10 nutrient mixture/10% horse serum/5% fetal bovine serum/50 μg/ml streptomycin/50 units/ml penicillin G). Cells were used for experiments after 2-6 days of culture.

[2] = biological target: T1, M6P/IGF2R (Rattus norvegicus, UniProt G3V824); experiment: Immunofluorescence of M6P/IGF2R distribution in fibroblasts; design: endogenous in cells; host or cells: primary neonatal rat cardiac fibroblasts; conditions: RA 0.25-1 μM for 2-3 h; neonatal rat fibroblasts
T1 sequence (G3V824 36-2481): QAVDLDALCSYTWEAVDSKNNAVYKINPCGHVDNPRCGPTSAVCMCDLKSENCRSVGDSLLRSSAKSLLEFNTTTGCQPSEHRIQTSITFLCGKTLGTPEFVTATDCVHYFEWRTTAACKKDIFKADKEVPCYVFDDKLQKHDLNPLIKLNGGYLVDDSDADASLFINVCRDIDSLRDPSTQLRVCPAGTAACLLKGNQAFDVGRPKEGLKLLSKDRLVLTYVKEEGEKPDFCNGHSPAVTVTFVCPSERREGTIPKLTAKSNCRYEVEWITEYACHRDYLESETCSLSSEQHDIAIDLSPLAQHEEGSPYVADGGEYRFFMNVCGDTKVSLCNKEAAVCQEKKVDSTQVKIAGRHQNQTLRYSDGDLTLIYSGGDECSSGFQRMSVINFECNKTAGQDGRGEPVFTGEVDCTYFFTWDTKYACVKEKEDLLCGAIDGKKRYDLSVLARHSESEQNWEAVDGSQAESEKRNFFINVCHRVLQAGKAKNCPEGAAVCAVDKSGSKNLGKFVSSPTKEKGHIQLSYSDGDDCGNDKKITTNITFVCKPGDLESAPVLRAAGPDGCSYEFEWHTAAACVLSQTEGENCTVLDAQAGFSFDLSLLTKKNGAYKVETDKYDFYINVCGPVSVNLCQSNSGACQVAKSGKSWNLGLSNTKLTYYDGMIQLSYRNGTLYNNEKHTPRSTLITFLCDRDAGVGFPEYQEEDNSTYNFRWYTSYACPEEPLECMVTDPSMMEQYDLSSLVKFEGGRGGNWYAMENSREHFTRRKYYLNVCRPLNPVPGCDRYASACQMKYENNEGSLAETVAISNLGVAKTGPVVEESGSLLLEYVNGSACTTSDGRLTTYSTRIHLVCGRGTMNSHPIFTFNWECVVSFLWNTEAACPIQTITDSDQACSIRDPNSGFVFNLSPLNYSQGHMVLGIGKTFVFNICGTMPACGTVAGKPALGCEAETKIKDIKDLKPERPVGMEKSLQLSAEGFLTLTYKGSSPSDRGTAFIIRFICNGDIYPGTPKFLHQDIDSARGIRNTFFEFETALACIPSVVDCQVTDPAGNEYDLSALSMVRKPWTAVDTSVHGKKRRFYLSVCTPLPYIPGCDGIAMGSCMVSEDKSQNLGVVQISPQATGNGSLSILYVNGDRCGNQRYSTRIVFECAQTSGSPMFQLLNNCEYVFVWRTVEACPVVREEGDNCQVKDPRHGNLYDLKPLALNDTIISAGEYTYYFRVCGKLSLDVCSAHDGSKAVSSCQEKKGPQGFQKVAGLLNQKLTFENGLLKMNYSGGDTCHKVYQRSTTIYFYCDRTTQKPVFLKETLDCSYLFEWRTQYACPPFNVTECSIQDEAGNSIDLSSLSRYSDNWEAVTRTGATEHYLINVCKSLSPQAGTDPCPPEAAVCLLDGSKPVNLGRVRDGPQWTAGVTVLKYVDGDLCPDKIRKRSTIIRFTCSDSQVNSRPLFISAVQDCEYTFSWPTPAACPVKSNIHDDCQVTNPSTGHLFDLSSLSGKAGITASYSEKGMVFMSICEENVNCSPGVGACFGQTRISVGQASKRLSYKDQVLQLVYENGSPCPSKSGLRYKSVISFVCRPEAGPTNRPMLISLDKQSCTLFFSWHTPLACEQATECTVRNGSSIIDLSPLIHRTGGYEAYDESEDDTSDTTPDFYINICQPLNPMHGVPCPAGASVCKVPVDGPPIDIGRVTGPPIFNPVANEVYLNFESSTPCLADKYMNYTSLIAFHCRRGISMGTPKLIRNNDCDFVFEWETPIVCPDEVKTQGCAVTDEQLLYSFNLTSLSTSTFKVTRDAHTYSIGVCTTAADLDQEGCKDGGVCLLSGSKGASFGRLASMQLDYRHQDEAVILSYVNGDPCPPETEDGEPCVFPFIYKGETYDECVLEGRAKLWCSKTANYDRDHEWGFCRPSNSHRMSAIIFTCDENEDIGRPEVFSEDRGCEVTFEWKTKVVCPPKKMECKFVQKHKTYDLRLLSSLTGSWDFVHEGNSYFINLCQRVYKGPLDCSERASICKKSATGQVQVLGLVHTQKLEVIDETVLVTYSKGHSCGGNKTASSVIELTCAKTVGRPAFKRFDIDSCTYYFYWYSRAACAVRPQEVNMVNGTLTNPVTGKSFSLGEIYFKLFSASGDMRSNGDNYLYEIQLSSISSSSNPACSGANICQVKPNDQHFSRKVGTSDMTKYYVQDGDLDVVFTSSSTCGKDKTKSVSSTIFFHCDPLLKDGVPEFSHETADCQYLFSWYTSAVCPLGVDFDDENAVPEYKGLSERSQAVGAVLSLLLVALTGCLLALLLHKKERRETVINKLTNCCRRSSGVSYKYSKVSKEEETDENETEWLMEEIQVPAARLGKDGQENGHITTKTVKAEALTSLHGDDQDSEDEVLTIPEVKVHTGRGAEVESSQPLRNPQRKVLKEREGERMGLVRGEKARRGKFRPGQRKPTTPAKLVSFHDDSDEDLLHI
Text: FIGS. 7A and 7B are photo micrographs showing the effect of retinoic acid on the distribution of the M6P/IGF2R in neonatal rat fibroblasts. […] The receptor was concentrated primarily in the perinuclear structure (probably the TGN area). […] Bar represents 4 μm.
To determine if RA affects intracellular trafficking of the M6P/IGF2R, distribution of the receptor in neonatal rat fibroblasts with or without RA treatment was visualized by immunofluorescence. The primary antibody used to target the receptor was a polyclonal anti-rat M6P/IGF2R (full length) rabbit IgG with high specificity. A non-immuno-rabbit IgG was used as a negative control. As indicated by fluorescence (FIGS. 7A and 7B), the M6P/IGF2R in the fibroblasts is normally concentrated primarily in the perinuclear structure (probably the TGN). […] This indicated a potentiating effect of RA on the trafficking of the M6P/IGF2R from the TGN to the endosomes/lysosomes.
Intracellular Trafficking Materials Retinoic acid was obtained from Sigma Chem. Co. (St. Louis, Mo.). The synthetic retinoids used (AGN193109, TTNPB) were produced by Allergan Inc. (Irvine, Calif.). Stably-transfected P388D1 cells re-expressing the M6P/IGF2R were provided by Dr. William S. Sly (St. Louis University). The rabbit polyclonal antibody against the rat M6P/IGF-II receptor was a gift from Dr. R.G. MacDonald (University of Nebraska). […]

[3] = biological target: T1, M6P/IGF2R; experiment: β-glucuronidase binding to saponin-permeabilized cardiac myocytes; design: endogenous in cells; host or cells: primary neonatal rat cardiac fibroblasts; conditions: RA 1 μM; saponin-permeabilized neonatal rat cardiac myocytes
Protocol: FIG. 3 is a histogram summarizing data on the effect of RA (1 μM) on β-glucuronidase binding to permeabilized neonatal rat cardiac myocytes (n=3).
To determine how these ligands interact in binding to the same receptor, we examined the effects of M6P and IGF-II on the [^3H]RA-affinity photolabeling of the M6P/IGF-II receptor. […] The [^3H]RA labeling of M6P/IGF-II receptor was 2-fold greater in the presence of 5 mM M6P than in the absence of M6P, as measured by NIH Image, n=3. Similar results were obtained by measurement of the binding of [^3H]RA to the partially purified receptors (FIG. 2). The increased binding of RA to the receptor in the presence of M6P appeared to be the result of increased binding affinity. […]
β-glucuronidase Binding and Endocytosis For binding assays, cells were permeabilized with saponin, incubated with β-glucuronidase (20,000 units/ml) with or without 1 μM RA for 3 h on ice, washed, solubilized and assayed for β-glucuronidase essentially as described by Miniti et al., 1992, J. Biol. Chem. 267:9000-9004. Specific enzyme binding was calculated by subtracting nonspecific binding (in the presence of 10 mM M6P) from total binding.

**Q.** Which results are given for `CC1=C(/C=C/C(C)=C/C=C/C(C)=C/C(=O)O)C(C)(C)CCC1` [RA, all-trans-retinoic acid]?
**A.** Cell morphology and growth ([1]; 48 hours): marked alteration of cell morphology, and inhibition of growth; Apoptotic cells (Hoechst 33258 nuclear staining) ([1]; RA-treated cultures vs controls): many more apoptotic cells; Intracellular distribution of M6P/IGF2R [2]: translocated from perinuclear area to cytoplasmic vesicles; also recorded: movement of the receptors from the perinuclear area to the cytoplasmic vesicles; M6P-inhibitable binding of β-glucuronidase to cells, presence vs absence of RA [3]: 2-3 times
